Test results from patent publication US20080319000A1, “Use of 3,1IB-Cis-Dihydrotetrabenazine for the Treatment of Symptoms of Huntingtons Disease” (CAMBRIDGE LABORATORIES (IRELAND) LIMITED, priority 2005, published 2008).

Assays:
adrenergic receptors = test: Adrenergic receptor inhibition; format: binding
[1] = biological target: T1, catechol O-methyl transferase (COMT) (Homo sapiens, UniProt P21964); test: COMT inhibition; format: biochemical
T1 sequence (P21964 1-271): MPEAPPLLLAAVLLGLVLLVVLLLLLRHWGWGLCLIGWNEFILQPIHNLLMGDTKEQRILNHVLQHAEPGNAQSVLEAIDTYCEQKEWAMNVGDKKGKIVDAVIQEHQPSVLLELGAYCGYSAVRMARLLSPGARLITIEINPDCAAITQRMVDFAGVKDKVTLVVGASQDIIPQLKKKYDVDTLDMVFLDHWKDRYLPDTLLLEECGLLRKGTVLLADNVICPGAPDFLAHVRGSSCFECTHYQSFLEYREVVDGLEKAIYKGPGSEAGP

[2] = tested on: B6CBA-Tg(HDexon1)62Gpb/1J transgenic (R6/2) mice; test: Simplified Irwin test in transgenic mice model of Huntington's disease; format: in vivo
Experimental: B6CBA-Tg(HDexon1)62Gpb/1J transgenic (R6/2) mice are transgenic for the 5-end of the human HD gene carrying (CAG) 115-(CAG) 150 repeat expansions. […] These symptoms appear between 6 and 8 weeks of age. […] Female B6CBa-Tg(HDexon1)62Gpb/1J transgenic mice (Jackson Laboratory, USA) were housed 5 per cage in an enriched environment under a light-dark cycle of 12 h-12 h (light on at 7.00 am, off at 7.00 pm) at a room temperature of 21±2° C., with 50±15% humidity. The mice had access to commercial mouse chow (mouse/rate breeding, ref. 9341 Provimi Kliba, Switzerland) and tap water. […] Two hours before the observations, animals were placed in individual cages. Measurements were first carried out in the individual cages. The animal's convulsions, tremors-twitches, stereotypies and vocalizations were recorded. The animal was then placed in a 58.5×68.5 cm open field with a 6 cm rim and observed for approximately 3 minutes. Gait characteristics were ranked. The presence of convulsions or tremors-twitches and stereotypies was again noted. At the end of the 3 minutes, the number of faecal boluses and pools of urine was recorded. The mice were then returned to their individual cages after testing. Group 1: hemizygote Transgenic B6CBA-Tg(HDexon 1)62Gpb/1J mice treated with vehicle i.p. once a day for 4 days (from day 0 to day 3) Group 2: hemizygote Transgenic B6CBA-Tg(HDexon 1)62Gpb/1J mice treated with 5 mg/kg i.p. of test item once a day for 4 days (from day 0 to day 3) […] • Test item administration • Simplified Irwin test, 40 minutes after administration • Rotarod test, immediately after the simplified Irwin test • Test item administration • Simplified Irwin test, 40 min after administration • Rotarod test, immediately after simplified #Irwin test • Test item administration • Simplified Irwin test, 40 min after administration • Locomotor activity test, immediately after the simplified Irwin test Simplified Irwin scores were analysed using non-parametric Mann-Whitney's U test. Locomotor activity data were analysed using Dunnett's t-test. Rotarod scores were analysed using the non-parametric Mann-Whitney's U-test. Statistical analyses were performed using the software Statview SE^+graphics software, Brain Power.

[3] = home cage, Day 0 after administration, 5 mg/kg i.p. once a day Day 0-3
[4] = home cage, Day 0 before administration, 5 mg/kg i.p. once a day Day 0-3
[5] = home cage, Day 1, 5 mg/kg i.p. once a day Day 0-3
[6] = home cage, Day 2, 5 mg/kg i.p. once a day Day 0-3
[7] = home cage, Day 3, 5 mg/kg i.p. once a day Day 0-3
[8] = open field, Day 0 after administration, 5 mg/kg i.p. once a day Day 0-3
[9] = open field, Day 0 before administration, 5 mg/kg i.p. once a day Day 0-3
[10] = open field, Day 1, 5 mg/kg i.p. once a day Day 0-3
[11] = open field, Day 2, 5 mg/kg i.p. once a day Day 0-3
[12] = open field, Day 3, 5 mg/kg i.p. once a day Day 0-3
[13] = open field, Day 17, 5 mg/kg i.p. once a day Day 0-3
[14] = open field, Day 21, 5 mg/kg i.p. once a day Day 0-3
[15] = open field, Day 24, 5 mg/kg i.p. once a day Day 0-3
[16] = open field, Day 27, 5 mg/kg i.p. once a day Day 0-3
[17] = open field, Day 31, 5 mg/kg i.p. once a day Day 0-3
[18] = period of 17 to 24 days after administration

For `COc1cc2c(cc1OC)[C@H]1C[C@H](O)[C@@H](CC(C)C)CN1CC2` (single isomer, unassigned) [Isomer B], the “inhibition of the adrenergic receptors” value (adrenergic receptors) was “either weakly active or inactive”, the “inhibitory activity against catechol O-methyl transferase (COMT)” value [1] was “no inhibitory activity” and the “incidences of involuntary movements such as involuntary chorea, tremors and twitches” value ([2]; after 21 days versus prior to administration) was “no worse after 21 days than they had been prior to administration”. For the same compound, the Convulsions [2, 3] was 0.13, the “Grooming” value [2, 3] was 7.38 s and the Stereotypies [2, 3] was “— (Sign never observed (equivalent to 0.00 ± 0.00))”. For the same compound, the Tremors-Twitches [2, 3] was 1.13, the Vocalization [2, 3] was “— (Sign never observed (equivalent to 0.00 ± 0.00))” and the Convulsions [2, 4] was 0.22. The “Grooming” value [2, 4] was 10.00 s, the Stereotypies [2, 4] was “— (Sign never observed (equivalent to 0.00 ± 0.00))” and the Tremors-Twitches [2, 4] was 1.44. For the same compound, the Vocalization [2, 4] was “— (Sign never observed (equivalent to 0.00 ± 0.00))”, the Convulsions [2, 5] was “— (Sign never observed (equivalent to 0.00 ± 0.00))” and the “Grooming (sec)” value [2, 5] was “— (Sign never observed (equivalent to 0.00 ± 0.00))”. For the same compound, the Stereotypies [2, 5] was “— (Sign never observed (equivalent to 0.00 ± 0.00))”, the Tremors-Twitches [2, 5] was 1.00 and the Vocalization [2, 5] was “— (Sign never observed (equivalent to 0.00 ± 0.00))”. For the same compound, the Convulsions [2, 6] was “— (Sign never observed (equivalent to 0.00 ± 0.00))”, the “Grooming” value [2, 6] was 7.78 s and the Stereotypies [2, 6] was “— (Sign never observed (equivalent to 0.00 ± 0.00))”. For the same compound, the Tremors-Twitches [2, 6] was 0.78, the Vocalization [2, 6] was “— (Sign never observed (equivalent to 0.00 ± 0.00))” and the Convulsions [2, 7] was 0.11. The “Grooming” value [2, 7] was 4.22 s, the Stereotypies [2, 7] was “— (Sign never observed (equivalent to 0.00 ± 0.00))” and the Tremors-Twitches [2, 7] was 1.00. The Vocalization [2, 7] was “— (Sign never observed (equivalent to 0.00 ± 0.00))”, the Convulsions [2, 8] was 0.67 and the “Defecation (N° of boluses)” value [2, 8] was 1.44 N° of boluses. For the same compound, the Gait [2, 8] was 0.33, the “Grooming” value [2, 8] was 3.11 s and the Stereotypies [2, 8] was 0.11. The Tremors-Twitches [2, 8] was 1.89, the “Urination (N° of pools)” value [2, 8] was 0.44 N° of pools and the Vocalisation [2, 8] was 0.22. The Convulsions [2, 9] was “— (Sign never observed (equivalent to 0.00 ± 0.00))”, the “Defecation (N° of boluses)” value [2, 9] was 2.56 N° of boluses and the Gait [2, 9] was 1.11. The “Grooming” value [2, 9] was 19.44 s, the Stereotypies [2, 9] was “— (Sign never observed (equivalent to 0.00 ± 0.00))” and the Tremors-Twitches [2, 9] was 2.11. The “Urination (N° of pools)” value [2, 9] was 0.67 N° of pools, the Vocalisation [2, 9] was 0.44 and the Convulsions [2, 10] was 0.11. For the same compound, the “Defecation (N° of boluses)” value [2, 10] was 0.89 N° of boluses, the Gait [2, 10] was 1.00 and the “Grooming” value [2, 10] was 7.78 s. The Stereotypies [2, 10] was “— (Sign never observed (equivalent to 0.00 ± 0.00))”, the Tremors-Twitches [2, 10] was 2.33 and the “Urination (N° of pools)” value [2, 10] was 0.11 N° of pools. The Vocalisation [2, 10] was 0.67, the Convulsions [2, 11] was “— (Sign never observed (equivalent to 0.00 ± 0.00))” and the “Defecation (N° of boluses)” value [2, 11] was 1.22 N° of boluses. The Gait [2, 11] was 0.67, the “Grooming” value [2, 11] was 20.56 s and the Stereotypies [2, 11] was “— (Sign never observed (equivalent to 0.00 ± 0.00))”. The Tremors-Twitches [2, 11] was 2.00, the “Urination (N° of pools)” value [2, 11] was 0.33 N° of pools and the Vocalisation [2, 11] was 0.89. The Convulsions [2, 12] was “— (Sign never observed (equivalent to 0.00 ± 0.00))”, the “Defecation (N° of boluses)” value [2, 12] was 1.33 N° of boluses and the Gait [2, 12] was 2.33. For the same compound, the “Grooming” value [2, 12] was 12.67 s, the Stereotypies [2, 12] was “— (Sign never observed (equivalent to 0.00 ± 0.00))” and the Tremors-Twitches [2, 12] was 1.78. The “Urination (N° of pools)” value [2, 12] was 0.11 N° of pools, the Vocalisation [2, 12] was 0.89 and the Convulsions [2, 13] was 0.67. The “Defecation (N° of boluses)” value [2, 13] was 2.67 N° of boluses, the Gait [2, 13] was 1.56 and the “Grooming” value [2, 13] was 20.33 s. For the same compound, the Stereotypies [2, 13] was “— (Sign never observed (equivalent to 0.00 ± 0.00))”, the Tremors-Twitches [2, 13] was 1.44 and the “Urination (N° of pools)” value [2, 13] was 0.22 N° of pools. For the same compound, the Vocalisation [2, 13] was 0.22, the Convulsions [2, 14] was “— (Sign never observed (equivalent to 0.00 ± 0.00))” and the “Defecation (N° of boluses)” value [2, 14] was 2.44 N° of boluses. For the same compound, the Gait [2, 14] was 1.67, the “Grooming” value [2, 14] was 17.67 s and the Stereotypies [2, 14] was “— (Sign never observed (equivalent to 0.00 ± 0.00))”. For the same compound, the Tremors-Twitches [2, 14] was 1.67, the “Urination (N° of pools)” value [2, 14] was 0.11 N° of pools and the Vocalisation [2, 14] was 0.44. For the same compound, the Convulsions [2, 15] was “— (Sign never observed (equivalent to 0.00 ± 0.00))”, the “Defecation (N° of boluses)” value [2, 15] was 1.33 N° of boluses and the Gait [2, 15] was 2.17. The “Grooming” value [2, 15] was 18.22 s, the Stereotypies [2, 15] was “— (Sign never observed (equivalent to 0.00 ± 0.00))” and the Tremors-Twitches [2, 15] was 2.44. For the same compound, the “Urination (N° of pools)” value [2, 15] was 0.33 N° of pools, the Vocalisation [2, 15] was 0.44 and the Convulsions [2, 16] was “— (Sign never observed (equivalent to 0.00 ± 0.00))”. The “Defecation (N° of boluses)” value [2, 16] was 2.33 N° of boluses, the Gait [2, 16] was 2.56 and the “Grooming” value [2, 16] was 25.33 s. The Stereotypies [2, 16] was “— (Sign never observed (equivalent to 0.00 ± 0.00))”, the Tremors-Twitches [2, 16] was 2.11 and the “Urination (N° of pools)” value [2, 16] was 0.44 N° of pools. For the same compound, the Vocalisation [2, 16] was 0.00, the Convulsions [2, 17] was “— (Sign never observed (equivalent to 0.00 ± 0.00))” and the “Defecation (N° of boluses)” value [2, 17] was 1.44 N° of boluses. For the same compound, the Gait [2, 17] was 2.33, the “Grooming” value [2, 17] was 19.11 s and the Stereotypies [2, 17] was “— (Sign never observed (equivalent to 0.00 ± 0.00))”. The Tremors-Twitches [2, 17] was 2.67, the “Urination (N° of pools)” value [2, 17] was 0.11 N° of pools and the Vocalisation [2, 17] was 0.22. For the same compound, the “deterioration (progression of symptoms) versus control mice” value [2, 18] was “significantly less deterioration than the control mice”, the deterioration in gait [2, 18] was “substantially arrested or slowed” and the “progression of symptoms of Huntington's disease (involuntary movements, deterioration in gait)” value ([2]; transgenic mouse model of Huntington's disease) was “shown to arrest the progression of a number of symptoms of Huntington's disease”.
